# Assay results as given in patent publication US20070093461A1, “Effect of Loteprednol etabonate on vascular dysfunction” (Bausch & Lomb Incorporated, priority 2005, published 2007).
# Entries after “also recorded” stand apart in the source; their conditions may differ.
# What was measured:
# Assay type in all cases: cell-based, human
# HREC = experiment: Cellular toxicity in LE-treated HREC; details: highest concentration of LE tested (50 μM)
# sICAM-1 = experiment: ELISA for sICAM-1 in supernatants of LE-treated HREC; details: HREC with or without LPS activation; LE 0, 10, 25 & 50 μM, 3 days; p≦0.05 (FIG. 2B)
# Experimental: (§1) HREC were treated with LE (10, 25 and 50 μM) for 3 days. Supernatants were removed and microcentrifuge (Beckman Microfuge R) 1000 RPM for 10 min (4° C. after which they were stored at −70° C. until needed. ELISA kits (R&D systems) for human vascular endothelial growth factor (VEGF), soluble intracellular adhesion molecule (sICAM-1) and soluble vascular cell adhesion molecule (sVCAM-1) were used according to the manufacturer's instructions.
# sVCAM-1 = experiment: ELISA for sVCAM-1 in supernatants of LE-treated HREC; details: HREC with or without LPS activation; LE 0, 10, 25 & 50 μM, 3 days; p≦0.05 (FIG. 2A)
# Experimental: as §1
# ZO-1 = experiment: Immunohistochemistry of tight junction protein ZO-1 in VEGF-treated HREC; details: LE 10 & 50 μM for 1 hour, then VEGF 20 ng/ml for 1 hour, listed as LE
# Experimental: Human retina endothelial cells were seeded onto an 8-well glass chamber and allowed to become 80-90% confluent. Cells were treated with or without LE for 1 hour and then treated with VEGF (20 ng/ml) for 1 hour. HREC were immediately fixed and stained with specific antibodies to occludin and zonula occluden-1 (Zymed). FITC-conjugated secondary antibodies (R&D Systems) were used to visualize tight junction distribution/integrity.
# VEGF = experiment: ELISA for VEGF in supernatants of LE-treated HREC; details: LE 0, 10, 25 & 50 μM, 3 days
# Experimental: as §1
# occludin = experiment: Western blot analysis of occludin in cell lysates; details: LE 0, 10 & 50 μM; daily administration for 3 days necessary to maintain effect
# Experimental: Cells were treated with LE (0, 10 & 50 μM) for either 3 days or LE (0, 10 & 50 μM) was replenished everyday for 3 days. Cells were lysed and protein levels determined/adjusted (see above). SDS PAGE was performed on cell lysates and then separated proteins were transferred on to a nitrocellulose (NC) paper (Invitrogen). NC paper was blocked with 3% non-fat milk in phosphate buffered saline (PBS) for 1 hour and then probed with specific anti bodies to occludin (Rabbit anti-occludin polyclonal and monoclonal antibodies, Zymed); Goat anti-occludin (Santa Cruz). NC paper was then incubated with secondary horseradish peroxidase conjugated antibody for 1 hour and the bands were visualized using DAB (3,3′-diaminobenzidine) (Vector Laboratories) or cheminluminescence (SuperSignal West Dura, Pierce).
structure (smiles),measurement,setting,value
CCOC(=O)O[C@]1(C(=O)OCCl)CC[C@H]2[C@@H]3CCC4=CC(=O)C=C[C@]4(C)[C@H]3[C@@H](O)C[C@@]21C [Loteprednol etabonate],cellular toxicity,HREC,no apparent cellular toxicity
same,expression of sICAM-1,sICAM-1,significantly down regulated
same,expression of sVCAM-1,sVCAM-1,significantly down regulated
same,effect on VEGF-induced disruption/redistribution of ZO-1 (tight junction),ZO-1,reversed the effect of VEGF tight junction disruption; also recorded: inhibited the effect of VEGF-induced disruption of ZO-1
same,expression of VEGF,"VEGF; HREC with LPS activation, p≦0.01 (FIG. 1A)",significantly down regulated
same,expression of VEGF,"VEGF; HREC without LPS activation, p≦0.01 (FIG. 1B)",significantly down regulated
same,total content of occludin,occludin,increased
